# Results taken from PubChem BioAssay AID330 (DTP/NCI, 2004).
# Several values for one entry are separate records, joined by “and”; a condition that tells them apart may be missing. Equal values may be shown once. Toxic doses and inconclusive results are not listed.
# System: P388 leukemia ip, CD2F1 mice, survival T/C
# Assay: NCI In Vivo Anticancer Drug Screen. Data for tumor model P388 Leukemia (intraperitoneal) in CD2F1 (CDF1) mice
# Conditions: endpoint: median survival time, higher = longer survival
# Method in brief: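 Mice carrying the transplanted tumor received test compound or vehicle. Survival was recorded in each group, and the value is the treated-group measurement divided by that of the vehicle-treated control group.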
# [1] = dose: 60.0 mg/kg/injection, schedule: Q01DX005 (ip), vehicle: saline with Tween-80
# [2] = dose: 120.0 mg/kg/injection, schedule: Q01DX005 (ip), vehicle: saline with Tween-80
# [3] = dose: 100.0 mg/kg/injection, schedule: Q01DX001 (ip), vehicle: Klucel (hydroxypropylcellulose) (HPC)
# [4] = dose: 200.0 mg/kg/injection, schedule: Q01DX001 (ip), vehicle: Klucel (hydroxypropylcellulose) (HPC)
# [5] = dose: 25.0 mg/kg/injection, schedule: Q01DX009 (ip), vehicle: saline with Tween-80
# [6] = dose: 50.0 mg/kg/injection, schedule: Q01DX009 (ip), vehicle: saline with Tween-80
# [7] = dose: 100.0 mg/kg/injection, schedule: Q01DX009 (ip), vehicle: saline with Tween-80
# [8] = dose: 200.0 mg/kg/injection, schedule: Q01DX009 (ip), vehicle: saline with Tween-80
# [9] = dose: 100.0 mg/kg/injection, schedule: Q04DX003 (ip), vehicle: saline with Tween-80
# [10] = dose: 200.0 mg/kg/injection, schedule: Q04DX003 (ip), vehicle: saline with Tween-80
# [11] = dose: 400.0 mg/kg/injection, schedule: Q01DX009 (ip), vehicle: saline with Tween-80
# [12] = dose: 400.0 mg/kg/injection, schedule: Q04DX003 (ip), vehicle: saline with Tween-80
# [13] = dose: 240.0 mg/kg/injection, schedule: Q01DX005 (ip), vehicle: saline with Tween-80
# [14] = dose: 400.0 mg/kg/injection, schedule: Q01DX001 (ip), vehicle: Klucel (hydroxypropylcellulose) (HPC)
structure (smiles),measurement,setting,value
C=CCC(C(=O)OC)c1ccc(Cl)cc1 (centres undefined),T/C,"dose: 0.62 mg/kg/injection, schedule: Q01DX009 (ip), vehicle: saline",114 % of control
same,T/C,"dose: 1.25 mg/kg/injection, schedule: Q01DX009 (ip), vehicle: saline",98 % of control
same,T/C,"dose: 2.5 mg/kg/injection, schedule: Q01DX009 (ip), vehicle: saline",103 % of control
COc1ccc(N=Nc2ncc(N)nc2N)cc1,T/C,"dose: 60.0 mg/kg/injection, schedule: Q01DX005 (ip), vehicle: Klucel (hydroxypropylcellulose) (HPC)",107 % of control
same,T/C,"dose: 120.0 mg/kg/injection, schedule: Q01DX005 (ip), vehicle: Klucel (hydroxypropylcellulose) (HPC)",108 % of control
same,T/C,"dose: 240.0 mg/kg/injection, schedule: Q01DX005 (ip), vehicle: Klucel (hydroxypropylcellulose) (HPC)",96 % of control
COc1cc(C2SCC(=O)N2c2nnc(C(F)(F)F)s2)cc(OC)c1OC (centres undefined),T/C,[1],98 % of control
same,T/C,[2],88 % of control
O=Cc1c(-c2ccc(-c3ccccc3)cc2)nc2n1CCS2,T/C,[3],100 % of control
same,T/C,[4],97 % of control
O=C1Nc2ccccc2C1(O)Cc1ccccn1 (centres undefined),T/C,[5],105 % of control
same,T/C,[6],95 % of control
same,T/C,[7],107 % of control
same,T/C,[8],103 % of control
O=C(O)CN1C(=O)C=CC1=O,T/C,"dose: 3.12 mg/kg/injection, schedule: Q01DX009 (ip), vehicle: saline",90 % of control
same,T/C,"dose: 6.25 mg/kg/injection, schedule: Q01DX009 (ip), vehicle: saline",101 % of control
same,T/C,"dose: 12.5 mg/kg/injection, schedule: Q01DX009 (ip), vehicle: saline",101 % of control and 86 % of control
CCOC(=O)Nc1nc2ccc(C(=O)OCC)cc2[nH]1,T/C,"dose: 100.0 mg/kg/injection, schedule: Q04DX003 (ip), vehicle: saline",108 % of control
same,T/C,"dose: 200.0 mg/kg/injection, schedule: Q04DX003 (ip), vehicle: saline",101 % of control
same,T/C,"dose: 400.0 mg/kg/injection, schedule: Q04DX003 (ip), vehicle: saline",108 % of control
Cc1ccc(-c2cc(Cl)c3cc(S(=O)(=O)F)ccc3n2)cc1,T/C,[7],104 % of control
same,T/C,[9],100 % of control
same,T/C,[8],100 % of control
same,T/C,[10],100 % of control
same,T/C,[11],104 % of control
same,T/C,[12],100 % of control
Cc1c(C)[n+](=O)c2ccc(C=O)cc2n1[O-],T/C,"dose: 50.0 mg/kg/injection, schedule: Q01DX009 (ip), vehicle: suspension in saline",97 % of control
same,T/C,"dose: 100.0 mg/kg/injection, schedule: Q01DX009 (ip), vehicle: suspension in saline",94 % of control
same,T/C,"dose: 200.0 mg/kg/injection, schedule: Q01DX009 (ip), vehicle: suspension in saline",94 % of control
Cc1[nH]c(=O)nc(CCc2ccccc2)c1-c1ccccc1,T/C,[1],93 % of control
same,T/C,[2],87 % of control
O=C(NNC(O)C(F)(F)F)c1ccccc1F (centres undefined),T/C,"dose: 100.0 mg/kg/injection, schedule: Q04DX002 (ip), vehicle: Klucel (hydroxypropylcellulose) (HPC)",99 % of control
O=C(NCc1ccccc1)Nc1cccc2c(NC(=O)NCc3ccccc3)cccc12,T/C,"dose: 30.0 mg/kg/injection, schedule: Q01DX005 (ip), vehicle: saline with Tween-80",91 % of control
same,T/C,[1],86 % of control and 89 % of control
same,T/C,[2],86 % of control
CCOC=C1C(=O)N(C)C(=O)N(C)C1=O,T/C,[6],106 % of control
same,T/C,[7],106 % of control
same,T/C,[8],108 % of control
O=C(CCCCCCCC(=O)NO)NO,T/C,[1],95 % of control
same,T/C,[2],100 % of control
same,T/C,[13],105 % of control
COc1ccc2nc(NN=O)sc2c1,T/C,"dose: 1.56 mg/kg/injection, schedule: Q01DX009 (ip), vehicle: water",92 % of control
same,T/C,"dose: 3.12 mg/kg/injection, schedule: Q01DX009 (ip), vehicle: water",101 % of control and 103 % of control
same,T/C,"dose: 6.25 mg/kg/injection, schedule: Q01DX009 (ip), vehicle: water",100 % of control and 92 % of control
same,T/C,"dose: 12.5 mg/kg/injection, schedule: Q01DX009 (ip), vehicle: water",100 % of control and 101 % of control
same,T/C,"dose: 25.0 mg/kg/injection, schedule: Q01DX009 (ip), vehicle: water",104 % of control and 97 % of control
same,T/C,"dose: 50.0 mg/kg/injection, schedule: Q01DX009 (ip), vehicle: water",111 % of control
CCN(CC)C(=O)c1c(Cl)c(Cl)c(Cl)c(Cl)c1C(=O)O,T/C,[6],112 % of control
same,T/C,[7],96 % of control
same,T/C,[8],96 % of control
same,T/C,[11],102 % of control
CSC(=S)N/N=C(\C)c1nccnc1C,T/C,"dose: 50.0 mg/kg/injection, schedule: Q01DX005 (ip), vehicle: saline with Tween-80",101 % of control
same,T/C,"dose: 100.0 mg/kg/injection, schedule: Q01DX005 (ip), vehicle: saline with Tween-80",106 % of control
same,T/C,"dose: 200.0 mg/kg/injection, schedule: Q01DX005 (ip), vehicle: saline with Tween-80",111 % of control
O=C(Nc1ccccc1)c1cc(Cl)ccc1O,T/C,[9],100 % of control
same,T/C,[10],100 % of control
same,T/C,[12],100 % of control
C=C1C(=O)OC2/C=C(\C)C(OC(C)=O)/C=C\C(C)(O)CC(OC(=O)/C(C)=C/C)C12 (centres undefined),T/C,"dose: 10.0 mg/kg/injection, schedule: Q01DX009 (ip), vehicle: saline with Tween-80",105 % of control
same,T/C,"dose: 20.0 mg/kg/injection, schedule: Q01DX009 (ip), vehicle: saline with Tween-80",99 % of control
same,T/C,"dose: 40.0 mg/kg/injection, schedule: Q01DX009 (ip), vehicle: saline with Tween-80",110 % of control
same,T/C,"dose: 80.0 mg/kg/injection, schedule: Q01DX009 (ip), vehicle: saline with Tween-80",115 % of control
c1ccc(-c2cn3c(n2)SCC3)cc1,T/C,[3],106 % of control
same,T/C,[4],106 % of control
same,T/C,[14],111 % of control
COC(=O)[CH2][Sn]([CH2]C(=O)OC)([c]1ccccc1)[c]1ccccc1,T/C,"dose: 0.39 mg/kg/injection, schedule: Q01DX005 (ip), vehicle: Klucel (hydroxypropylcellulose) (HPC)",120 % of control
same,T/C,"dose: 0.79 mg/kg/injection, schedule: Q01DX005 (ip), vehicle: Klucel (hydroxypropylcellulose) (HPC)",112 % of control
CCC[CH2][Sn]1([CH2]CCC)[O]C(=O)C[S]1,T/C,"dose: 0.75 mg/kg/injection, schedule: Q01DX009 (ip), vehicle: saline",100 % of control
same,T/C,"dose: 1.5 mg/kg/injection, schedule: Q01DX009 (ip), vehicle: saline",108 % of control
same,T/C,"dose: 2.0 mg/kg/injection, schedule: Q01DX009 (ip), vehicle: saline with Tween-80",115 % of control
same,T/C,"dose: 2.0 mg/kg/injection, schedule: Q04DX003 (ip), vehicle: saline with Tween-80",118 % of control
same,T/C,"dose: 4.5 mg/kg/injection, schedule: Q04DX003 (ip), vehicle: saline with Tween-80",150 % of control
CC(C)N1C(C)c2ccccc2OS1=O (centres undefined),T/C,"dose: 50.0 mg/kg/injection, schedule: Q01DX009 (ip), vehicle: Klucel (hydroxypropylcellulose) (HPC)",99 % of control
same,T/C,"dose: 100.0 mg/kg/injection, schedule: Q01DX009 (ip), vehicle: Klucel (hydroxypropylcellulose) (HPC)",108 % of control
CC(C)(C)OC(=O)NC(Cc1ccc(OCc2ccccc2)cc1)C(=O)ON1C(=O)CCC1=O (centres undefined),T/C,"dose: 50.0 mg/kg/injection, schedule: Q01DX005 (ip), vehicle: Klucel (hydroxypropylcellulose) (HPC)",93 % of control
same,T/C,"dose: 100.0 mg/kg/injection, schedule: Q01DX005 (ip), vehicle: Klucel (hydroxypropylcellulose) (HPC)",88 % of control
same,T/C,"dose: 200.0 mg/kg/injection, schedule: Q01DX005 (ip), vehicle: Klucel (hydroxypropylcellulose) (HPC)",100 % of control
CCOC(=O)/C=C1/CC(C#N)(C(=O)NN)CO1 (centres undefined),T/C,[3],102 % of control
same,T/C,[4],110 % of control
same,T/C,[14],100 % of control
CN(C)C(=N)N(C)C,T/C,[5],100 % of control
same,T/C,[6],100 % of control
same,T/C,[7],95 % of control
COC(=O)c1cc(-c2ccccc2)c2c(=O)n(-c3ccccc3)[nH]c2n1,T/C,[1],99 % of control
same,T/C,[2],100 % of control
same,T/C,[13],96 % of control
C[n+]1ccccc1C(=O)O,T/C,"dose: 25.0 mg/kg/injection, schedule: Q01DX009 (ip), vehicle: saline",102 % of control
same,T/C,"dose: 50.0 mg/kg/injection, schedule: Q01DX009 (ip), vehicle: saline",98 % of control
same,T/C,"dose: 100.0 mg/kg/injection, schedule: Q01DX009 (ip), vehicle: saline",103 % of control
same,T/C,"dose: 200.0 mg/kg/injection, schedule: Q01DX009 (ip), vehicle: saline",92 % of control
